The text below walks through data of article PMC8143647, “Proteomics of Galápagos Marine Iguanas Links Function of Femoral Gland Proteins to the Immune System” (Molecular & Cellular Proteomics : MCP, 2020).

Assay [1] concerns Escherichia coli K12 or Escherichia coli BL21. Kind of assay: Antimicrobial activity, relative growth inhibition in broth microdilution (Gram-neg.). In kind it is cell-based. Details: key to Activity against Gram-neg.: ++: highly active (comparable to oncocin); +: moderately active; +/-: moderately active without clear dose dependency; -: no activity; antimicrobial activity compared with oncocin: dose or concentration left out as unconfirmed. The settings on record: for Activity against Gram-neg.: Escherichia coli in Miller-Hinton broth, inoculum 1-2 x 10^7 cfu/ml, 100 µl + 20 µl test substance, 2n dilution series from 1 mg/ml down to 31 µg/ml, 18-24 h 37 °C, photometer 600 nm, duplicates. The method, then:
(§1) Test strains of Bacillus subtilis, Escherichia coli K12 or Escherichia coli BL21 were grown in Miller-Hinton broth (MHB) for 18–20 h at 37 °C with moderate shaking. An inoculum of 1–2 × 10^7 cfu/ml was prepared in fresh MHB and 100 µl of the suspension was pipetted into microtiter plate wells together with 20 µl test substance. Test substances were measured in duplicates. The plates were covered by a plastic seal to prevent evaporation and incubated for further 18–24 h at 37 °C with moderate shaking. The test substances were dissolved in water at a concentration of 1 mg/ml and a 2n dilution series down to 31 µg/ml was prepared in sterile PBS. After incubation, the bacterial growth was estimated with a Photometer at 600 nm and the relative growth inhibition was calculated compared with a control without test substance. As positive control the well-studied AMP oncocin was used.
(§2) We were intrigued by these antimicrobial signatures and sought to systematically analyze the proteome of femoral glands. To this end, we utilized the marine iguana protein database of all detected proteins, and generated a library of potential antimicrobial peptides (AMP) by in-silico sliding window digestion. Here, we generated sequence windows of 8 to 15 amino acids and resulting peptides were predicted for antimicrobial activity by a trained support vector machine (as described in the methods) (Fig. 5). […] To experimentally test the antimicrobial properties of these peptides, we determined growth rate reductions of bacterial cultures in the presence of increasing candidate peptide concentration. As positive control, we used the well-established AMP oncocin ([40]). As negative control, we have picked four peptides predicted to have no AMP activity.
Background: Dilution methods test growth across graded concentrations, often in twofold steps.

For the next assay, the system named is Bacillus subtilis. As to the kind of experiment: Antimicrobial activity, relative growth inhibition in broth microdilution (Gram-pos.). In kind it is cell-based. Details: key to Activity against Gram-pos.: ++: highly active (comparable to oncocin); +: moderately active; +/-: moderately active without clear dose dependency; -: no activity. The note with it: for Activity against Gram-pos.: Bacillus subtilis in Miller-Hinton broth, inoculum 1-2 x 10^7 cfu/ml, 100 µl + 20 µl test substance, 2n dilution series from 1 mg/ml down to 31 µg/ml, 18-24 h 37 °C, photometer 600 nm, duplicates. How it is done: as §1, §2

As for IFELDGALYR [Iguana-non-04], in assay [1], the “Activity against Gram-neg.” value was “-”. In addition, the “Activity against Gram-pos.” value with Bacillus subtilis was “-”. As for “LSLSRISIP [Iguana-06, predicted antimicrobial peptide from marine iguana proteome, …]”, the “Activity against Gram-neg.” value in assay [1] is “+/-”. Regarding “VDPQKV [Iguana-08, predicted antimicrobial peptide from marine iguana proteome, VDPQKV]”, in assay [1], the “Activity against Gram-neg.” value was “+”. For “YKFYKA [Iguana-01, predicted antimicrobial peptide from marine iguana proteome, YKFYKA]”, the “Activity against Gram-neg.” value in assay [1] was “+”. In the assay on Bacillus subtilis, the “Activity against Gram-pos.” value was “+”. For NLVSVDERLV [Iguana-non-03], in assay [1], the “Activity against Gram-neg.” value is “-”. Moreover, in the assay with Bacillus subtilis, the “Activity against Gram-pos.” value is reported as “-”. With “SYFVKRPPGV [Iguana-13, predicted antimicrobial peptide from marine iguana proteome, …]”, in assay [1], the “Activity against Gram-neg.” value was “+/-”. The “Activity against Gram-pos.” value in the assay on Bacillus subtilis is on record as “+/-”. As to “IADPDQFVLKPQ [Iguana-15, predicted antimicrobial peptide from marine iguana proteome, …]”, the “Activity against Gram-neg.” value in assay [1] is “+”. Further, the “Activity against Gram-pos.” value in the assay on Bacillus subtilis was “+/-”. Consider “KKPLITMDEIP [Iguana-11, predicted antimicrobial peptide from marine iguana proteome, …]”, for which the “Activity against Gram-neg.” value in assay [1] is reported as “+”. In the assay with Bacillus subtilis, the “Activity against Gram-pos.” value is given as “++”. Consider “IIPNEDFS [Iguana-05, predicted antimicrobial peptide from marine iguana proteome, IIPNEDFS]”, for which, in assay [1], the “Activity against Gram-neg.” value is “-”. For SALWVVER [Iguana-non-01], in assay [1], the “Activity against Gram-neg.” value is listed as “-”. Further, the “Activity against Gram-pos.” value in the assay on Bacillus subtilis was “-”.

As for “VDKPPYLPRPRPPRRIYNR-NH2 [Oncocin, well-studied AMP used as positive control, …-NH2, reference compound]”, in assay [1], the “Activity against Gram-neg.” value is on record as “++”. In the assay on Bacillus subtilis, the “Activity against Gram-pos.” value is listed as “++”. Take “LSRPGVLERFLPDKP [Iguana-16, predicted antimicrobial peptide from marine iguana proteome, …]”: the “Activity against Gram-neg.” value in assay [1] was “+”. Besides, in the assay with Bacillus subtilis, the “Activity against Gram-pos.” value is “+”.

For “MPKFHMPKF [Iguana-17, predicted antimicrobial peptide from marine iguana proteome, …]”, the “Activity against Gram-neg.” value in assay [1] is “++”. The “Activity against Gram-pos.” value with Bacillus subtilis was “++”. With “RLTPFVEPRY [Iguana-12, predicted antimicrobial peptide from marine iguana proteome, …]”, the “Activity against Gram-neg.” value in assay [1] is given as “+”. Besides, the “Activity against Gram-pos.” value with Bacillus subtilis was “+/-”. As for “RGSIGGGRRGSI [Iguana-03, predicted antimicrobial peptide from marine iguana proteome, …]”, in assay [1], the “Activity against Gram-neg.” value is on record as “-”. In addition, the “Activity against Gram-pos.” value with Bacillus subtilis is “+/-”. With LKVPELNV [Iguana-non-02], the “Activity against Gram-neg.” value in assay [1] is “-”. For the same substance, in the assay on Bacillus subtilis, the “Activity against Gram-pos.” value is reported as “-”. As to “GSFPKEAIVQK [Iguana-07, predicted antimicrobial peptide from marine iguana proteome, …]”, the “Activity against Gram-neg.” value in assay [1] is recorded as “+/-”. For “GGRRGSI [Iguana-02, predicted antimicrobial peptide from marine iguana proteome, GGRRGSI]”, the “Activity against Gram-neg.” value in assay [1] is listed as “+/-”. Also, the “Activity against Gram-pos.” value with Bacillus subtilis is on record as “+/-”. Consider “KKLYISKGCMSKSLC [Iguana-04, predicted antimicrobial peptide from marine iguana proteome, …]”, for which the “antimicrobial activity compared with oncocin” value in assay [1] (E. coli cultures, low concentrations between 3 and 60) is “exceeded even the oncocin activity”. Also, the “dose dependent maximal growth reduction” value in assay [1] (E. coli cultures, vs control without test substance, OD 600 nm) is listed as “approx. 75%”; in the assay on Bacillus subtilis (B. subtilis cultures, high concentrations required, vs control without test substance, OD 600 nm) it was ~95%. Further, in assay [1], the “Activity against Gram-neg.” value is reported as “++”. Also, the “Activity against Gram-pos.” value with Bacillus subtilis is listed as “++”. “RGQYG [Iguana-09, predicted antimicrobial peptide from marine iguana proteome, RGQYG]”: the “Activity against Gram-neg.” value in assay [1] was “+”.

For the substance “AGVPRFRFGPPE [Iguana-10, predicted antimicrobial peptide from marine iguana proteome, …]”, the “Activity against Gram-neg.” value in assay [1] is recorded as “++”. For the same substance, the “Activity against Gram-pos.” value in the assay on Bacillus subtilis was “+/-”.

For “LPTKLDSAFIRKDPFG [Iguana-14, predicted antimicrobial peptide from marine iguana proteome, …]”, the “Activity against Gram-neg.” value in assay [1] is on record as “+”. In addition, the “Activity against Gram-pos.” value in the assay with Bacillus subtilis is listed as “+/-”.
